# According to patent US7919488B2, “Therapeutic compounds” (Pfizer Inc., priority 2006, dated 2011):
# Counter-ions that a name gives are not always drawn.
# How the values were obtained:
# Type in all cases: biochemical
# [1] = molecular target: T1, recombinant CYP3A4+b5 enzyme (Supersomes®) (Homo sapiens, UniProt P08684); experiment: Kiapp against recombinant CYP3A4 enzyme (Supersomes), BFC substrate; conditions: recombinant CYP3A4+b5 (BD Biosciences), 5 uM BFC, 200 uM NADPH, pre-incubation at least 30 minutes, pH 7.0, room temperature
# T1 construct: purchased BD Biosciences (Woburn, Mass.)
# T1 sequence (P08684 2-503 limits assumed): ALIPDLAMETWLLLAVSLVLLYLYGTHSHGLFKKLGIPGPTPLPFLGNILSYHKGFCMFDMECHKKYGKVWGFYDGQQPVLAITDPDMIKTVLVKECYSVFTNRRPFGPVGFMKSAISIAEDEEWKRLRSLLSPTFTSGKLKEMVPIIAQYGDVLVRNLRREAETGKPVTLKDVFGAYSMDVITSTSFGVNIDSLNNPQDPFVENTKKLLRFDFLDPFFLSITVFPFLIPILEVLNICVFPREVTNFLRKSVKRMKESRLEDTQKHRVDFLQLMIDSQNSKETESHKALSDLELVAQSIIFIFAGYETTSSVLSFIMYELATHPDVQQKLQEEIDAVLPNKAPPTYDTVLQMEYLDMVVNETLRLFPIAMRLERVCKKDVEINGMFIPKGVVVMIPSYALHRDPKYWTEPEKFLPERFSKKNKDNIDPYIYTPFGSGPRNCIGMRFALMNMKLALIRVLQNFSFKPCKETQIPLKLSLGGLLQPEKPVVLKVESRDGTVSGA
# Procedure: 1. Determination of Compound Kiapp
# A determination of the Kiapp of the compounds of the invention against recombinant CYP3A4 enzyme was performed as follows. The assay was performed in a 100 mM sodium phosphate buffer pH 7.0, 5 mM TCEP and containing 2% dimethylformamide (final concentration) upon addition of substrate and inhibitor. A typical reaction for the determination of Kiapp values was carried at room temperature in a solid black Costar u-bottom 96-well polypropylene plate. In each well, recombinant CYP3A4 enzyme (5.5 nM or 8 nM, final concentration depending on the commercial source of the enzyme) was pre-incubated in the presence of the inhibitor for at least 30 minutes in the assay buffer. When pre-incubation was completed (˜30 min), the reaction was initiated by adding NADPH (200 uM, final concentration), and 7-benzyloxy-4-(trifluoromethyl)-coumarin (BFC) (5 uM, final concentration). The oxidation of the coumarin substrate was recorded by a 96-well plate reader POLARstar (BMG LABTECH, Offenburg, Germany).
# The initial reaction velocities were measured during the first 5 min of the reaction when the release of the fluorescent product is linear with time, in the absence and in the presence of various concentrations of inhibitors. For non-partial & partial inhibitors, the Kiapp values were determined by using the equation for tight-binding inhibitor developed by Morrison, J F (Morrison J F. Biochim Biophys Acta. 1969, 185: 269-86) and by Szedlaseck S E et al. (Szedlascek, S. E., Ostafe, V., Serban, M., and Vlad, M. O. Biochem. J. 1988, 254:311-312), respectively.
# The fluorescent substrate BFC was purchased from Sigma (St Louis, Mo.). Two commercial sources of recombinant enzymes were used in this study: recombinant CYP3A4-b5 enzyme (Baculosomes®) was purchased from Invitrogen (Carlsbad, Calif.) and the recombinant CYP3A4+b5 enzyme (Supersomes®) was purchased from BD Biosciences (Woburn, Mass.).
# [2] = molecular target: T2, CYP3A4 (Homo sapiens, UniProt P08684); experiment: IC50 against CYP3A4 by inhibition of testosterone metabolism in human liver microsomes; conditions: 0.1 mg/mL human liver microsomes, 25 μM testosterone, 1 mM NADPH, 6-β-OH-testosterone production, eight minutes; read-out: IC50, μM (HLM, testosterone)
# T2 construct: 0.1 mg/mL human liver microsomes; from tissue; host or cells: human liver microsomes
# T2 sequence (P08684 whole entry): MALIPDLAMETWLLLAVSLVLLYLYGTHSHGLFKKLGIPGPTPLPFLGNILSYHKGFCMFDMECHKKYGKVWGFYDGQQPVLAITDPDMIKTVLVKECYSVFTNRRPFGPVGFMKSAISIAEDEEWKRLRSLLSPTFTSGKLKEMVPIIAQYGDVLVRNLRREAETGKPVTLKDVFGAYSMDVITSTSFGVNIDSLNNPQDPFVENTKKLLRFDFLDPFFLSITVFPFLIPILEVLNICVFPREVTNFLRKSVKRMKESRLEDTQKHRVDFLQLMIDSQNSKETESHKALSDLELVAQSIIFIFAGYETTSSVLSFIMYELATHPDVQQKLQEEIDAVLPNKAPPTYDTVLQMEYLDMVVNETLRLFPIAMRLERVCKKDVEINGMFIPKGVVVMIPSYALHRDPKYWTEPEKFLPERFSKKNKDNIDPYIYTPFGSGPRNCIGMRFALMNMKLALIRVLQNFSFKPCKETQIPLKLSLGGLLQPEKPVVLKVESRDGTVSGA
# Summary of the method: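 Testosterone used as substrate, incubated for eight minutes. 6-β-OH-testosterone formation quantified by LC-MS/MS (MRM) as peak area ratio to internal standard against a metabolite standard curve. IC50 derived from inhibition of this metabolism.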
# [3] = molecular target: T3, recombinant CYP3A4-b5 enzyme (Baculosomes®) (Homo sapiens, UniProt P08684); experiment: Kiapp against recombinant CYP3A4 enzyme (Baculosomes), BFC substrate; conditions: recombinant CYP3A4-b5 (Invitrogen), 5 uM BFC, 200 uM NADPH, pre-incubation at least 30 minutes, pH 7.0, room temperature
# T3 construct: purchased Invitrogen (Carlsbad, Calif.)
# T3 sequence (P08684 whole entry): as above
# Summary of the method: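 Recombinant CYP3A4-b5 Baculosomes were run in 100 mM sodium phosphate pH 7.0 with 5 mM TCEP and 2% DMF at room temperature, with ~30 min pre-incubation. The reaction was started with NADPH (200 uM) and BFC (5 uM), both final. Kiapp came from initial fluorescence velocities over the first 5 min across inhibitor concentrations.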
# [4] = molecular target: T2, CYP3A4; experiment: IC50 against CYP3A4 by inhibition of midazolam metabolism in human liver microsomes; conditions: 0.1 mg/mL human liver microsomes, 2 μM midazolam, 1 mM NADPH, 1-hydroxymidazolam production, eight minutes; read-out: IC50, μM (HLM, midazolam)
# Summary of the method: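 Human liver microsomes (0.1 mg/mL) incubated 8 min with 2 μM midazolam and 1 mM NADPH in 100 mM potassium phosphate, pH 7.4. 1-Hydroxymidazolam quantified by LC-MS/MS (MRM) as peak area ratio to internal standard against a metabolite standard curve.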
Ki [1] [µM],IC50 [2] [µM],Ki [3] [µM],IC50 [4] [µM],SMILES
0.0118,0.024,0.0237,0.0218,"CS(=O)(=O)C1CCN(C(=O)Cn2nc(-c3ccncc3)cc2Cc2ccc(F)cc2)CC1 [Example 6, 4-(5-(4-fluorobenzyl)-1-{2-[4-(methylsulfonyl)piperidin-1-yl]-2-oxoethyl}-1H-pyrazol-3-yl)pyridine]"
0.033,0.105,0.196,0.073,"CNC1CCN(C(=O)Cn2nc(-c3ccncc3)cc2Cc2ccc(F)cc2)CC1 [Example 7, 1-{[5-(4-fluorobenzyl)-3-pyridin-4-yl-1H-pyrazol-1-yl]acetyl}-N-methylpiperidin-4-amine]"
0.0139,0.016,0.0369,0.00707,"CC(C)NC(=O)N(C)C1CCN(C(=O)Cn2nc(-c3ccncc3)cc2Cc2ccc(F)cc2)CC1 [Example 16, N-(1-{[5-(4-fluorobenzyl)-3-pyridin-4-yl-1H-pyrazol-1-yl]acetyl}piperidin-4-yl)-N′-isopropyl-N-methylurea]"
,0.015,0.0241,0.007,"CCCN(C)C1(C(N)=O)CCN(C(=O)Cn2nc(-c3ccncc3)cc2Cc2ccc(F)cc2)CC1 [Example 92, 1-{[5-(4-fluorobenzyl)-3-pyridin-4-yl-1H-pyrazol-1-yl]acetyl}-4-[methyl(propyl)amino] piperidine-4-carboxamide]"
,0.082,0.378,0.108,"O=C(Cn1nc(-c2ccncc2)cc1Cc1ccc(F)cc1)N1CC(O)C1 [Example 98, 1-{[5-(4-fluorobenzyl)-3-pyridin-4-yl-1H-pyrazol-1-yl]acetyl}azetidin-3-ol]"
,0.035,0.158,0.0105,"CCC(=O)NC1CCN(C(=O)Cn2nc(-c3ccncc3)cc2Cc2ccc(F)cc2)CC1 [Example 101, N-(1-(2-[5-(4-fluorobenzyl)-3-pyridin-4-yl-1H-pyrazol-1-yl]acetyl}piperidin-4-yl)propanamide]"
,0.023,0.107,0.012,"CCS(=O)(=O)NC1CCN(C(=O)Cn2nc(-c3ccncc3)cc2Cc2ccc(F)cc2)CC1 [Example 102, N-(1-(2-[5-(4-fluorobenzyl)-3-pyridin-4-yl-1H-pyrazol-1-yl]acetyl}piperidin-4-yl)ethanesulfonamide]"
,0.068,0.106,0.025,O=C(Cn1nc(-c2ccncc2)cc1Cc1ccc(F)cc1)N1CC[C@@H](N2CCOCC2)C1 [Example 103]
,0.009,0.002,0.006,"CC(C)OC(=O)N(C)C1CCN(C(=O)Cn2nc(-c3ccncc3)cc2Cc2ccc(F)cc2)CC1 [Example 112, isopropyl (1-{[5-(4-fluorobenzyl)-3-pyridin-4-yl-1H-pyrazol-1-yl]acetyl}piperidin-4-yl)methylcarbamate]"
,0.011,0.00676,0.009,CCOC(=O)N(C)C1CCN(C(=O)Cn2nc(-c3ccncc3)cc2Cc2ccc(F)cc2)CC1 [Example 113]
,0.015,0.0338,0.004,"CCNC(=O)N(C)C1CCN(C(=O)Cn2nc(-c3ccncc3)cc2Cc2ccc(F)cc2)CC1 [Example 115, 3-ethyl-1-(1-{[5-(4-fluorobenzyl)-3-pyridin-4-yl-1H-pyrazol-1-yl]acetyl}piperidin-4-yl)-1-methylurea]"
,0.008,0.0141,< 0.003,"CC(C)OC(=O)NC1CCN(C(=O)Cn2nc(-c3ccncc3)cc2Cc2ccc(F)cc2)CC1 [Example 116, isopropyl (1-{[5-(4-fluorobenzyl)-3-pyridin-4-yl-1H-pyrazol-1-yl]acetyl}piperidin-4-yl)carbamate]"
,0.018,0.0702,0.011,"CNC(=O)N(C)C1CCN(C(=O)Cn2nc(-c3ccncc3)cc2Cc2ccc(F)cc2)CC1 [Example 117, 1-(1-{[5-(4-fluorobenzyl)-3-pyridin-4-yl-1H-pyrazol-1-yl]acetyl}piperidin-4-yl)-1,3-dimethylurea]"

# Second part, the molecule before the results:
SMILES,Ki [1] [µM],IC50 [2] [µM],Ki [3] [µM],IC50 [4] [µM]
"Fc1ccc(Cc2cc(-c3ccncc3)n[nH]2)cc1 [Example 1, 4-[5-(4-fluorobenzyl)-1H-pyrazol-3-yl]pyridine]",0.0064,< 0.022,0.0557,0.077
"O=C(Cn1nc(-c2ccncc2)cc1Cc1ccc(F)cc1)N1CCCC(N2CCOCC2)CC1 (centres unmarked) [Example 4, 1-{[5-(4-fluorobenzyl)-3-pyridin-4-yl-1H-pyrazol-1-yl]acetyl}-4-morpholin-4-ylazepane, maleic acid salt]",0.0061,0.057,0.0211,0.023
"Cn1ccnc1CNC(=O)Cn1nc(-c2ccncc2)cc1Cc1ccc(F)cc1 [Example 87, 2-[5-(4-fluorobenzyl)-3-pyridin-4-yl-1H-pyrazol-1-yl]-N-[(1-methyl-1H-imidazol-2-yl)methyl]acetamide]",,0.019,0.108,0.019
"Cc1cc(CNC(=O)Cn2nc(-c3ccncc3)cc2Cc2ccc(F)cc2)no1 [Example 88, 2-[5-(4-fluorobenzyl)-3-pyridin-4-yl-1H-pyrazol-1-yl]-N-[(5-methylisoxazol-3-yl)methyl]acetamide]",,0.016,0.0753,0.024
"Cc1c(CNC(=O)Cn2nc(-c3ccncc3)cc2Cc2ccc(F)cc2)cnn1C [Example 89, N-[(1,5-dimethyl-1H-pyrazol-4-yl)methyl]-2-[5-(4-fluorobenzyl)-3-pyridin-4-yl-1H-pyrazol-1-yl]acetamide]",,0.015,0.0728,0.016
"Cc1noc(CNC(=O)Cn2nc(-c3ccncc3)cc2Cc2ccc(F)cc2)n1 [Example 90, 2-[5-(4-fluorobenzyl)-3-pyridin-4-yl-1H-pyrazol-1-yl]-N-[(3-methyl-1,2,4-oxadiazol-5-yl)methyl]acetamide]",,0.012,0.0773,0.019
"Cc1noc(CCNC(=O)Cn2nc(-c3ccncc3)cc2Cc2ccc(F)cc2)n1 [Example 91, 2-[5-(4-fluorobenzyl)-3-pyridin-4-yl-1H-pyrazol-1-yl]-N-[2-(3-methyl-1,2,4-oxadiazol-5-yl)ethyl]acetamide]",,0.018,0.112,0.019
"O=C(Cn1nc(-c2ccncc2)cc1Cc1ccc(F)cc1)N[C@H]1CC[C@H](O)CC1 [Example 96, 2-[5-(4-fluorobenzyl)-3-pyridin-4-yl-1H-pyrazol-1-yl]-N-(trans-4-hydroxycyclohexyl)-acetamide]",,< 0.0225,0.0227,< 0.013
"O=C(Cn1nc(-c2ccncn2)cc1Cc1ccc(F)cc1)N1CCN(c2ccccn2)CC1 [Example 97, 4-{5-(4-fluorobenzyl)-1-[2-oxo-2-(4-pyridin-2-ylpiperazin-1-yl)ethyl]-1H-pyrazol-3-yl}pyrimidine]",,< 0.012,0.232,0.045
"CC(C)NC(=O)Cn1nc(-c2c[nH]cn2)cc1Cc1ccc(F)cc1 [Example 111, 2-[5-(4-fluorobenzyl)-3-(1H-imidazol-4-yl)-1H-pyrazol-1-yl]-N-isopropylacetamide]",,0.714,0.838,0.223
